Assay results reported in patent publication US10759751B2, “Substituted spirocyclohexanes as muscarinic M1 receptor and/or M4 receptor agonists” (Heptares Therapeutics Limited, priority 2016, dated 2020).

Key:
Format in all cases: cell-based
[1] = molecular target: T1, human muscarinic M4 receptor (Homo sapiens, UniProt P08173); assay: Alphascreen Surefire phospho-ERK1/2 functional assay, M4; details: for EC50: CHO cells stably expressing human M4, phospho-ERK1/2, read-out: pEC50 M4 (converted); for Emax: CHO, read-out: M4 % Emax cf. ACh, CHO cells stably expressing human M4, Emax relative to ACh
T1 construct: expressed in transfected cells
T1 sequence (P08173 1-479): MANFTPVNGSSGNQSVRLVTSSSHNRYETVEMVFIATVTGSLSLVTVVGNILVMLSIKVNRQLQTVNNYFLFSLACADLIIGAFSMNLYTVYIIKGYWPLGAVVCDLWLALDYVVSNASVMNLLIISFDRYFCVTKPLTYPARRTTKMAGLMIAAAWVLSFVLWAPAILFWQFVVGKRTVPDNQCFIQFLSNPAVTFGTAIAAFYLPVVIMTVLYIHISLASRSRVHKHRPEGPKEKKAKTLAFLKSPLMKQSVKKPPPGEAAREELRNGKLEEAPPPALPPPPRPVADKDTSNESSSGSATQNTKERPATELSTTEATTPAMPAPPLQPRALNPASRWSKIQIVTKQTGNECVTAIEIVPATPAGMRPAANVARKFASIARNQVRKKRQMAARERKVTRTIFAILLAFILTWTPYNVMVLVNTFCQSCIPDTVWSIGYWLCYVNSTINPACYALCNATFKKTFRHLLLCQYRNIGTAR
Description: (§1) Functional assays were performed using the Alphascreen Surefire phospho-ERK1/2 assay (Crouch & Osmond, Comb. Chem. High Throughput Screen, 2008). ERK1/2 phosphorylation is a downstream consequence of both Gq/11 and Gi/o protein coupled receptor activation, making it highly suitable for the assessment of M1, M3 (Gq/11 coupled) and M2, M4 receptors (Gi/o coupled), rather than using different assay formats for different receptor subtypes. CHO cells stably expressing the human muscarinic M1, M2, M3 or M4 receptor were plated (25K/well) onto 96-well tissue culture plates in MEM-alpha+10% dialysed FBS. Once adhered, cells were serum-starved overnight. Agonist stimulation was performed by the addition of 5 μL agonist to the cells for 5 min (37° C.). Media was removed and 50 μL of lysis buffer added. After 15 min, a 4 μL sample was transferred to 384-well plate and 7 μL of detection mixture added. Plates were incubated for 2 h with gentle agitation in the dark and then read on a PHERAstar plate reader.
(§2) pEC50 and Emax figures were calculated from the resulting data for each receptor subtype.

[2] = molecular target: T2, human muscarinic M3 receptor (Homo sapiens, UniProt P20309); assay: Alphascreen Surefire phospho-ERK1/2 functional assay, M3; details: for EC50: CHO cells stably expressing human M3, phospho-ERK1/2, read-out: pEC50 M3 (converted); for Emax: CHO, read-out: M3 % Emax cf. ACh
T2 construct: expressed in transfected cells
Description: as §1, §2

[3] = molecular target: T3, human muscarinic M1 receptor (Homo sapiens, UniProt P11229); assay: Alphascreen Surefire phospho-ERK1/2 functional assay, M1; details: for EC50: CHO cells stably expressing human M1, phospho-ERK1/2, read-out: pEC50 M1 (converted); for Emax: CHO, read-out: M1 % Emax cf. ACh, CHO cells stably expressing human M1, Emax relative to ACh
T3 sequence (P11229 1-460): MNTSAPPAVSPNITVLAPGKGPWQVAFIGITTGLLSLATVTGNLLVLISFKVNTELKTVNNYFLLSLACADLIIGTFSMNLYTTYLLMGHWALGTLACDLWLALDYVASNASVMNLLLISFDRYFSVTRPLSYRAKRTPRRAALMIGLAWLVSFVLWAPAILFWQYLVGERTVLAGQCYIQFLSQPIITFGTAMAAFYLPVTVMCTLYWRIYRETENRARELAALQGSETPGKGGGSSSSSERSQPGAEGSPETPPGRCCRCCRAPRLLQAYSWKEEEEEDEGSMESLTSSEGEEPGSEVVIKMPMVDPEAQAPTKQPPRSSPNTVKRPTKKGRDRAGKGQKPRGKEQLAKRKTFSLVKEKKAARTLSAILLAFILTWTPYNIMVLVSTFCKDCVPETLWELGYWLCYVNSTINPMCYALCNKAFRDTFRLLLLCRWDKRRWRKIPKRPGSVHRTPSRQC
Description: as §1, §2

[4] = molecular target: T4, human muscarinic M2 receptor (Homo sapiens, UniProt P08172); assay: Alphascreen Surefire phospho-ERK1/2 functional assay, M2; details: for EC50: CHO cells stably expressing human M2, phospho-ERK1/2, read-out: pEC50 M2 (converted); for Emax: CHO, read-out: M2 % Emax cf. ACh
T4 sequence (P08172 1-466): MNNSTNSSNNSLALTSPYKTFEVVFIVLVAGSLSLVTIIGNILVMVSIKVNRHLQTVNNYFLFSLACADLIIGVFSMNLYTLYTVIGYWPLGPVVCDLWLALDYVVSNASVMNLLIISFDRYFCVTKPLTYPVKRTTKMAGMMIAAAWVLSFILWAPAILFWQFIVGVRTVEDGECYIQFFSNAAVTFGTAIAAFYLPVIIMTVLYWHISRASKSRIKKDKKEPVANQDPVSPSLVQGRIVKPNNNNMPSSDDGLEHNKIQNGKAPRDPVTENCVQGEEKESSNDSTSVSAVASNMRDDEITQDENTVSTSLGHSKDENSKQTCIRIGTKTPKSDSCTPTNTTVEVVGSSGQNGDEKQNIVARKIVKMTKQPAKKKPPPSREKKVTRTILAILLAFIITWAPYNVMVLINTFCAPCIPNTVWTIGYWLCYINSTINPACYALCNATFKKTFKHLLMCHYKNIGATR
Description: as §1, §2

T2 sequence (P20309 whole entry): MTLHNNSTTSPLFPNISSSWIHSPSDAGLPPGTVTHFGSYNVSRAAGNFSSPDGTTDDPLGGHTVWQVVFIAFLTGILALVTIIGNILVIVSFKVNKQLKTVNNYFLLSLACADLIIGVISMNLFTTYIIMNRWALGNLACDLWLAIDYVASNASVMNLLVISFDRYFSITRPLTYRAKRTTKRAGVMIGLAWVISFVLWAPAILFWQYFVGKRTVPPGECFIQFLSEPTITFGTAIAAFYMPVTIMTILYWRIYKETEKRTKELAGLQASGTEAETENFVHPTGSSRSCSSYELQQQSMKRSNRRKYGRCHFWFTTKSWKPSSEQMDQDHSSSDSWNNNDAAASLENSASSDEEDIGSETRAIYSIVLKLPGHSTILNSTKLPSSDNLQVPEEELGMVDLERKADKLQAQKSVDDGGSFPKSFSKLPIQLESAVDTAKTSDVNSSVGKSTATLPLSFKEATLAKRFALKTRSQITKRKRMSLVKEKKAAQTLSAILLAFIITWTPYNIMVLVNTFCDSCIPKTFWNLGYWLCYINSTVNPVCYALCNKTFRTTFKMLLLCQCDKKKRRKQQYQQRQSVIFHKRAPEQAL

Structure (SMILES) | EC50 [1] [nM] | Emax [1] [%] | EC50 [2] [nM] | Emax [2] [%] | EC50 [3] [nM] | Emax [3] [%] | EC50 [4] [nM] | Emax [4] [%]
CCOC(=O)N1CCCN(C2CCC(C#N)(c3cccc(F)c3)CC2)CC1 (mixture of isomers) [3-2 mixture of isomers] | 74.1 | 76 | > 20000 | 46 | 25.1 | 96 | > 20000 | 7
CCOC(=O)N1CCCN(C2CCC(C#N)(c3ccc(F)cc3)CC2)CC1 (mixture of isomers) [3-3 mixture of isomers] | 63.1 | 85 | > 20000 | 35 | 9.77 | 101 | > 20000 | 38
CCOC(=O)N1CCCN(C2CCC(C#N)(c3ccccc3Cl)CC2)CC1 (mixture of isomers) [3-4 mixture of isomers] | 832 | 46 | > 20000 | 40 | 295 | 86 | > 20000 | 12
CCOC(=O)N1CCCN(C2CCC(C#N)(c3cccc(Cl)c3)CC2)CC1 (mixture of isomers) [3-5 mixture of isomers] | 309 | 47 | > 20000 | 36 | 83.2 | 101 | > 20000 | 5
CCOC(=O)N1CCCN(C2CCC(C#N)(c3ccc(Cl)cc3)CC2)CC1 (mixture of isomers) [3-6 mixture of isomers] | 100 | 62 | > 20000 | 38 | 9.55 | 105 | > 20000 | 11
CCOC(=O)N1CCCN(C2CCC(C#N)(c3ccccc3C)CC2)CC1 (mixture of isomers) [3-7 mixture of isomers] | 1700 | 48 | > 20000 | 34 | 389 | 101 | > 20000 | 35
CCOC(=O)N1CCCN(C2CCC(C#N)(c3cccc(C)c3)CC2)CC1 (mixture of isomers) [3-8 mixture of isomers] | 105 | 62 | > 20000 | 7 | 35.5 | 106 | > 20000 | 18
CCOC(=O)N1CCCN(C2CCC(C#N)(c3ccc(OC)cc3)CC2)CC1 (mixture of isomers) [3-9 mixture of isomers] | > 20000 | 2 | > 20000 | 0 | 115 | 98 | > 20000 | 33
CCOC(=O)N1CCCN(C2CCC(C#N)(c3ccccn3)CC2)CC1 (mixture of isomers) [3-11 mixture of isomers] | 389 | 99 | > 20000 | 15 | 72.4 | 97 | > 20000 | 43
CCOC(=O)N1CCCN(C2CCC(C#N)(c3ccncc3)CC2)CC1 (mixture of isomers) [3-12 mixture of isomers] | 1070 | 48 | > 20000 | 3 | 155 | 116 | > 20000 | 5
CCOC(=O)N1CCCN(C2CCC(C#N)(c3ccc(Cl)cn3)CC2)CC1 (mixture of isomers) [3-16 mixture of isomers] | 126 | 90 | > 20000 | 39 | 6.61 | 103 | > 20000 | 10
CCOC(=O)N1CCCN(C2CCC(C#N)(c3ccc(C(F)(F)F)cn3)CC2)CC1 (mixture of isomers) [3-21 mixture of isomers] | > 20000 | 53 | > 20000 | 2 | 724 | 90 | > 20000 | 3
COC(=O)N1CCCN(C2CCC(C#N)(c3ccccc3)CC2)CC1 (mixture of isomers) [3-28 mixture of isomers] | 245 | 91 | > 20000 | 7 | 776 | 116 | > 20000 | 15
N#CC1(c2ccccc2)CCC(N2CCCN(C(=O)OCCF)CC2)CC1 (mixture of isomers) [3-29 mixture of isomers] | 200 | 68 | > 20000 | 3 | 537 | 75 | > 20000 | 3
CCOC(=O)N[C@H]1CCN(C2CCC(C#N)(c3ccccc3)CC2)C1 (single isomer, unassigned) [1-1 Isomer 2] | > 20000 | 18 | > 20000 | 18 | 51.3 | 117 | > 20000 | 3
CCOC(=O)N[C@@H]1CCN(C2CCC(C#N)(c3ccccc3)CC2)C1 (single isomer, unassigned) [1-2 Isomer 2] | 741 | 52 | > 20000 | 1 | 209 | 102 | > 20000 | 23
CCOC(=O)N[C@H]1CCN(C2CCC(C#N)(c3cccc(F)c3)CC2)C1 (single isomer, unassigned) [1-3 Isomer 2] | > 20000 | 13 | > 20000 | 1 | 30.9 | 119 | > 20000 | 0
CCOC(=O)N[C@H]1CCN(C2CCC(C#N)(c3ccc(F)cc3)CC2)C1 (single isomer, unassigned) [1-4 Isomer 2] | > 20000 | 7 | > 20000 | 8 | 35.5 | 98 | > 20000 | 3
CCOC(=O)N[C@@H]1CCN(C2CCC(C#N)(c3ccccc3F)CC2)C1 (single isomer, unassigned) [1-5 Isomer 2] | > 20000 | 46 | > 20000 | 33 | 115 | 125 | > 20000 | 5
CCOC(=O)N[C@H]1CCN(C2CCC(C#N)(c3cccc(C)c3)CC2)C1 (single isomer, unassigned) [1-9 Isomer 2] | > 20000 | 12 | > 20000 | 2 | 27.5 | 99 | > 20000 | 6
